According to patent publication US12508261B2, “Methods of treating depression with vortioxetine” (Rundle Research LLC, priority 2017, dated 2025):

Experiments:
[1] = Regression model estimating vortioxetine half-life and MAOI delay from total body fat and steady-state plasma concentration (CYP2D6 metabolizer status); set-up: species or system human
From the text: Data obtained in the study described in Example 1 and Table 1 provided the basis for a regression model (having a r^2 value of 88%) based on total body fat and steady-state vortioxetine plasma concentration. Because the steady-state plasma concentration of vortioxetine correlates with metabolizer status, this regression provides a means of estimating vortioxetine half-life for patients based on total body fat and CYP2D6 metabolizer status.
Alternatively, the delay period can be calculated based on any particular values in Table 1, or any statistical parameter for characterizing the subject population of Table, such as the arithmetic mean, geometric mean, maximum, minimum, maximum or minimum 90% confidence interval, etc. of the half-life (e.g., 7.5×the average t1/2, 7.5×the maximum t1/2, and so forth, or the 21 day equivalency to a normal weight extensive metabolizer subject, based on the average t1/2 or the maximum t1/2 or any of the aforementioned statistically parameters).

[2] = TRINTELLIX label; cited from earlier work
[3] = Extensive(a) average of obese steady-state concentration for extensive metabolizers, total fat 60 kg
[4] = Extensive(a) average of obese steady-state concentration for extensive metabolizers, total fat 70 kg
[5] = Extensive(a) average of obese steady-state concentration for extensive metabolizers, total fat 80 kg
[6] = Extensive(a) average of obese steady-state concentration for extensive metabolizers, total fat 90 kg
[7] = Extensive(a) average of obese steady-state concentration for extensive metabolizers, total fat 100 kg
[8] = Extensive(b) high of extensive metabolizers, total fat 40 kg
[9] = Extensive(b) high of extensive metabolizers, total fat 50 kg
[10] = Extensive(b) high of extensive metabolizers, total fat 60 kg
[11] = Extensive(b) high of extensive metabolizers, total fat 70 kg
[12] = Extensive(b) high of extensive metabolizers, total fat 80 kg
[13] = Extensive(b) high of extensive metabolizers, total fat 90 kg
[14] = Extensive(b) high of extensive metabolizers, total fat 100 kg
[15] = IM(c) average of intermediate metabolizer values, total fat 10 kg
[16] = IM(c) average of intermediate metabolizer values, total fat 20 kg
[17] = IM(c) average of intermediate metabolizer values, total fat 30 kg
[18] = IM(c) average of intermediate metabolizer values, total fat 40 kg
[19] = IM(c) average of intermediate metabolizer values, total fat 50 kg
[20] = IM(c) average of intermediate metabolizer values, total fat 60 kg
[21] = IM(c) average of intermediate metabolizer values, total fat 70 kg
[22] = IM(c) average of intermediate metabolizer values, total fat 80 kg
[23] = IM(c) average of intermediate metabolizer values, total fat 90 kg
[24] = IM(c) average of intermediate metabolizer values, total fat 100 kg
[25] = IM(d) high of IM values, total fat 10 kg
[26] = IM(d) high of IM values, total fat 20 kg
[27] = IM(d) high of IM values, total fat 30 kg
[28] = IM(d) high of IM values, total fat 40 kg
[29] = IM(d) high of IM values, total fat 50 kg
[30] = IM(d) high of IM values, total fat 60 kg
[31] = IM(d) high of IM values, total fat 70 kg
[32] = IM(d) high of IM values, total fat 80 kg
[33] = IM(d) high of IM values, total fat 90 kg
[34] = IM(d) high of IM values, total fat 100 kg
[35] = PM(e) estimated poor metabolizer values, total fat 10 kg
[36] = PM(e) estimated poor metabolizer values, total fat 20 kg
[37] = PM(e) estimated poor metabolizer values, total fat 30 kg
[38] = PM(e) estimated poor metabolizer values, total fat 40 kg
[39] = PM(e) estimated poor metabolizer values, total fat 50 kg
[40] = PM(e) estimated poor metabolizer values, total fat 60 kg
[41] = PM(e) estimated poor metabolizer values, total fat 70 kg
[42] = PM(e) estimated poor metabolizer values, total fat 80 kg
[43] = PM(e) estimated poor metabolizer values, total fat 90 kg
[44] = PM(e) estimated poor metabolizer values, total fat 100 kg

## Cc1ccc(Sc2ccccc2N2CCNCC2)c(C)c1 [vortioxetine]
[1]; Extensive(a) average of obese steady-state concentration for extensive metabolizers, total fat 10 kg
  Half-Life Estimates: 21 h
[1]; Extensive(a) average of obese steady-state concentration for extensive metabolizers, total fat 20 kg
  Half-Life Estimates: 32 h
[1]; Extensive(a) average of obese steady-state concentration for extensive metabolizers, total fat 30 kg
  Half-Life Estimates: 42 h
[1]; Extensive(a) average of obese steady-state concentration for extensive metabolizers, total fat 40 kg
  Half-Life Estimates: 52 h
[1]; Extensive(a) average of obese steady-state concentration for extensive metabolizers, total fat 50 kg
  Half-Life Estimates: 62 h
[1]; [3]
  Half-Life Estimates: 73 h
  Weeks of Delay (7.5 X half-life): 3.2 Weeks
[1]; [4]
  Half-Life Estimates: 83 h
  Weeks of Delay (7.5 X half-life): 3.7 Weeks
[1]; [5]
  Half-Life Estimates: 93 h
  Weeks of Delay (7.5 X half-life): 4.2 Weeks
[1]; [6]
  Half-Life Estimates: 103 h
  Weeks of Delay (7.5 X half-life): 4.6 Weeks
[1]; [7]
  Half-Life Estimates: 114 h
  Weeks of Delay (7.5 X half-life): 5.1 Weeks
[1]; Extensive(b) high of extensive metabolizers, total fat 10 kg
  Half-Life Estimates: 39 h
[1]; Extensive(b) high of extensive metabolizers, total fat 20 kg
  Half-Life Estimates: 49 h
[1]; Extensive(b) high of extensive metabolizers, total fat 30 kg
  Half-Life Estimates: 59 h
[1]; [8]
  Half-Life Estimates: 70 h
  Weeks of Delay (7.5 X half-life): 3.1 Weeks
[1]; [9]
  Half-Life Estimates: 80 h
  Weeks of Delay (7.5 X half-life): 3.6 Weeks
[1]; [10]
  Half-Life Estimates: 90 h
  Weeks of Delay (7.5 X half-life): 4.0 Weeks
[1]; [11]
  Half-Life Estimates: 100 h
  Weeks of Delay (7.5 X half-life): 4.5 Weeks
[1]; [12]
  Half-Life Estimates: 111 h
  Weeks of Delay (7.5 X half-life): 4.9 Weeks
[1]; [13]
  Half-Life Estimates: 121 h
  Weeks of Delay (7.5 X half-life): 5.4 Weeks
[1]; [14]
  Half-Life Estimates: 131 h
  Weeks of Delay (7.5 X half-life): 5.9 Weeks
[1]; [15]
  Half-Life Estimates: 102 h
  Weeks of Delay (7.5 X half-life): 4.6 Weeks
[1]; [16]
  Half-Life Estimates: 112 h
  Weeks of Delay (7.5 X half-life): 5.0 Weeks
[1]; [17]
  Half-Life Estimates: 123 h
  Weeks of Delay (7.5 X half-life): 5.5 Weeks
[1]; [18]
  Half-Life Estimates: 133 h
  Weeks of Delay (7.5 X half-life): 5.9 Weeks
[1]; [19]
  Half-Life Estimates: 143 h
  Weeks of Delay (7.5 X half-life): 6.4 Weeks
[1]; [20]
  Half-Life Estimates: 153 h
  Weeks of Delay (7.5 X half-life): 6.8 Weeks
[1]; [21]
  Half-Life Estimates: 164 h
  Weeks of Delay (7.5 X half-life): 7.3 Weeks
[1]; [22]
  Half-Life Estimates: 174 h
  Weeks of Delay (7.5 X half-life): 7.8 Weeks
[1]; [23]
  Half-Life Estimates: 184 h
  Weeks of Delay (7.5 X half-life): 8.2 Weeks
[1]; [24]
  Half-Life Estimates: 194 h
  Weeks of Delay (7.5 X half-life): 8.7 Weeks
[1]; [25]
  Half-Life Estimates: 116 h
  Weeks of Delay (7.5 X half-life): 5.2 Weeks
  Weeks of Delay (21 day equivalency to Normal, 66 hr half-life): 5.3 Weeks
[1]; [26]
  Half-Life Estimates: 126 h
  Weeks of Delay (7.5 X half-life): 5.6 Weeks
  Weeks of Delay (21 day equivalency to Normal, 66 hr half-life): 5.7 Weeks
[1]; [27]
  Half-Life Estimates: 136 h
  Weeks of Delay (7.5 X half-life): 6.1 Weeks
  Weeks of Delay (21 day equivalency to Normal, 66 hr half-life): 6.2 Weeks
[1]; [28]
  Half-Life Estimates: 147 h
  Weeks of Delay (7.5 X half-life): 6.5 Weeks
  Weeks of Delay (21 day equivalency to Normal, 66 hr half-life): 6.7 Weeks
[1]; [29]
  Half-Life Estimates: 157 h
  Weeks of Delay (7.5 X half-life): 7.0 Weeks
  Weeks of Delay (21 day equivalency to Normal, 66 hr half-life): 7.1 Weeks
[1]; [30]
  Half-Life Estimates: 167 h
  Weeks of Delay (7.5 X half-life): 7.5 Weeks
  Weeks of Delay (21 day equivalency to Normal, 66 hr half-life): 7.6 Weeks
[1]; [31]
  Half-Life Estimates: 177 h
  Weeks of Delay (7.5 X half-life): 7.9 Weeks
[1]; [32]
  Half-Life Estimates: 188 h
  Weeks of Delay (7.5 X half-life): 8.4 Weeks
[1]; [33]
  Half-Life Estimates: 198 h
  Weeks of Delay (7.5 X half-life): 8.8 Weeks
  Weeks of Delay (21 day equivalency to Normal, 66 hr half-life): 9.0 Weeks
[1]; [34]
  Half-Life Estimates: 208 h
  Weeks of Delay (7.5 X half-life): 9.3 Weeks
  Weeks of Delay (21 day equivalency to Normal, 66 hr half-life): 9.5 Weeks
[1]; [35]
  Half-Life Estimates: 215 h
  Weeks of Delay (7.5 X half-life): 9.6 Weeks
[1]; [36]
  Half-Life Estimates: 225 h
  Weeks of Delay (7.5 X half-life): 10.0 Weeks
[1]; [37]
  Half-Life Estimates: 235 h
  Weeks of Delay (7.5 X half-life): 10.5 Weeks
[1]; [38]
  Half-Life Estimates: 245 h
  Weeks of Delay (7.5 X half-life): 11.0 Weeks
[1]; [39]
  Half-Life Estimates: 256 h
  Weeks of Delay (7.5 X half-life): 11.4 Weeks
[1]; [40]
  Half-Life Estimates: 266 h
  Weeks of Delay (7.5 X half-life): 11.9 Weeks
[1]; [41]
  Half-Life Estimates: 276 h
  Weeks of Delay (7.5 X half-life): 12.3 Weeks
[1]; [42]
  Half-Life Estimates: 286 h
  Weeks of Delay (7.5 X half-life): 12.8 Weeks
[1]; [43]
  Half-Life Estimates: 297 h
  Weeks of Delay (7.5 X half-life): 13.2 Weeks
[1]; [44]
  Half-Life Estimates: 307 h
  Weeks of Delay (7.5 X half-life): 13.7 Weeks
[2]
  time to achieve steady-state plasma concentrations: ≤ 2 weeks
